Experiments:
[1] = 101 kPa, Liquid, Vibrating tube method
[2] = xn = mol fraction of the nth substance listed; conditions: 101 kPa, Liquid, Vibrating tube method

OCCO [1,2-ethanediol]
[1]
Conditions	mass density [kg/m3]
278.15 K	1123.8
323.15 K	1092.14

OCCO [1,2-ethanediol] + O
mass density [kg/m3], [2]
Conditions	278.15 K	288.15 K	298.15 K	308.15 K	323.15 K
x1 = 0.02277	1010.24	1008.82	1006.33	1002.99	996.6
x1 = 0.05488	1023.85	1021.56	1018.45	1014.58	1007.61
x1 = 0.07829	1032.87	1030.01	1026.44	1022.21	1014.78
x1 = 0.1012	1040.89	1037.48	1033.52	1028.99	1021.16
x1 = 0.158	1057.7	1053.26	1048.42	1043.17	1034.52
x1 = 0.2	1067.88	1062.86	1057.55	1051.92	1042.75
x1 = 0.299	1085.43	1079.59	1073.54	1067.25	1057.39
x1 = 0.3917	1096.56	1090.28	1083.85	1077.24	1067.02
x1 = 0.5006	1105.57	1098.99	1092.32	1085.51	1075.02
x1 = 0.6041	1111.55	1104.81	1098	1091.09	1080.49
x1 = 0.7063	1115.93	1109.12	1102.24	1095.28	1084.61
x1 = 0.8049	1119.14	1112.26	1105.34	1098.34	1087.65
x1 = 0.9034	1121.73	1114.79	1107.84	1100.82	1090.14
x1 = 0.9535	1122.81	1115.88	1108.92	1101.89	1091.19
x1 = 0.9826	1123.42	1116.49	–	1102.48	1091.78
x1 = 1	1123.8	–	–	–	1092.14

O [water] + OCCO
[2], x2 = 0
Conditions	mass density [kg/m3]
278.15 K	999.96
323.15 K	988.03

From the NIST ThermoML archive (doi:10.1016/j.fluid.2013.01.025)
